{"source": "ChEMBL document CHEMBL1148161", "about": "“Jaspisamides A-C, new cytotoxic macrolides from the Okinawan sponge Jaspis sp” (J Nat Prod, 1993)", "key": {"[1]": {"system": "KB", "assay": "Cytotoxicity against human KB cells", "type": "functional, cell-based"}, "[2]": {"system": "L1210", "assay": "Cytotoxicity against mouse L1210 cells", "type": "functional, cell-based"}}, "data": [{"compound": "COC(CC1OC(=O)CC(O)CC(O)CC(=O)C(C)C(OC)c2coc(n2)-c2coc(n2)-c2coc(n2)/C=C/CCC1C)C(C)CCC(=O)C(C)C(C/C=C/N(C)C=O)OC", "note": "(stereo unspecified) [JASPISAMIDE A]", "values": [{"measurement": "IC50", "setting": "[1]", "result": 15, "unit": "ng/mL"}, {"measurement": "IC50", "setting": "[2]", "result": "< 1", "unit": "ng/mL"}]}, {"compound": "COC(CC1OC(=O)CC(O)C/C=C/C(=O)C(C)C(OC)c2coc(n2)-c2coc(n2)-c2coc(n2)/C=C/CCC1C)C(C)CCC(=O)C(C)C(OC)C(C)/C=C/N(C)C=O", "note": "(stereo unspecified) [JASPISAMIDE C]", "values": [{"measurement": "IC50", "setting": "[1]", "result": 13, "unit": "ng/mL"}, {"measurement": "IC50", "setting": "[2]", "result": "< 1", "unit": "ng/mL"}]}, {"compound": "COC(CC1OC(=O)CC(O)C/C=C/C(=O)C(C)C(OC)c2coc(n2)-c2coc(n2)-c2coc(n2)/C=C/CC(O)C1C)C(C)CCC(=O)C(C)C(C/C=C/N(C)C=O)OC", "note": "(stereo unspecified) [JASPISAMIDE B]", "values": [{"measurement": "IC50", "setting": "[1]", "result": 6, "unit": "ng/mL"}, {"measurement": "IC50", "setting": "[2]", "result": "< 1", "unit": "ng/mL"}]}]}
